Laboratory results from ChEMBL document CHEMBL1157550, “Incorporation of fluorinated phenylalanine generates highly specific inhibitor of proteasome's chymotrypsin-like sites” (J Med Chem, 2010).
Activity calls are given as the source filed them. The rule behind the calls is not given here.

Key:
[1] = biological target: T1, Proteasome component C5 (Homo sapiens) (UniProt P20618); test: (§1) Inhibition of 26S proteasome beta 1 in human HEK293 cell lysate assessed as residual activity at […] after 1 hr; format: cell-free
T1 sequence (whole entry): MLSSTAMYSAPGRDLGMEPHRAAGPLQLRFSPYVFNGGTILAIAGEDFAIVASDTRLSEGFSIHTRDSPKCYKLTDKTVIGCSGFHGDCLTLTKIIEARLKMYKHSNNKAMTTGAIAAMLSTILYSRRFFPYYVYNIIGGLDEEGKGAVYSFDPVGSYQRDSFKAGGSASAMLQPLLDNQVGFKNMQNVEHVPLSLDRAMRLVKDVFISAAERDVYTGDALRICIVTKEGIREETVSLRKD

[2] = biological target: T1, Proteasome component C5 (Homo sapiens); test: as §1; format: cell-free; remark: listed apart in the source
[3] = biological target: Proteasome subunit beta type-5 (Homo sapiens) (UniProt P28074); test: Inhibition of 26S proteasome beta 5 in human HEK293 cell lysate assessed as residual activity at 0.001 uM after 1 hr
[4] = biological target: T1, Proteasome component C5 (Homo sapiens); test: Inhibition of 26S proteasome beta 1 in human HEK293 cell lysate assessed as residual activity at 0.167 uM after 1 hr; format: cell-free
[5] = biological target: T2, Proteasome Macropain subunit MB1 (Homo sapiens) (UniProt P28074); test: Displacement of fluorescent labeled MV151 from 26S proteasome beta 5 in human HEK293 cell lysate assessed as disappearance of band at 0.1 to 1 uM after 1 hr by SDS-PAGE; format: cell-free
T2 sequence (whole entry): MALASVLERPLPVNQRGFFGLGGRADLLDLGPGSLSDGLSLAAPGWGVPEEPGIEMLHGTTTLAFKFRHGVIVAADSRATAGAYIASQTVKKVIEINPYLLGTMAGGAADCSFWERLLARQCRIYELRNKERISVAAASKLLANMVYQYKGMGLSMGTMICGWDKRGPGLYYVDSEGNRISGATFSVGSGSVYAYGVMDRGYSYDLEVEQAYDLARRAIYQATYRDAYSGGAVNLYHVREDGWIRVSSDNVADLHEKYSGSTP

[6] = biological target: Proteasome subunit beta type-5 (Homo sapiens) (UniProt P28074); test: Inhibition of 26S proteasome beta 5 in human HEK293 cell lysate assessed as residual activity at 0.019 uM after 1 hr
[7] = biological target: Proteasome Macropain subunit (Homo sapiens) (UniProt P49721); test: Inhibition of 26S proteasome beta 2 in human HEK293 cell lysate assessed as residual activity at 0.006 uM after 1 hr; format: cell-free
[8] = biological target: Proteasome Macropain subunit (Homo sapiens) (UniProt P49721); test: (§2) Inhibition of 26S proteasome beta 2 in human HEK293 cell lysate assessed as residual activity at […] after 1 hr; format: cell-free
[9] = biological target: Proteasome Macropain subunit (Homo sapiens) (UniProt P49721); test: Inhibition of 26S proteasome beta 2 in human HEK293 cell lysate assessed as residual activity at 0.167 uM after 1 hr; format: cell-free
[10] = biological target: T1, Proteasome component C5 (Homo sapiens); test: Inhibition of 26S proteasome beta 1 in human HEK293 cell lysate assessed as residual activity at 0.019 uM after 1 hr; format: cell-free
[11] = biological target: Proteasome subunit beta type-5 (Homo sapiens) (UniProt P28074); test: Inhibition of 26S proteasome beta 5 in human HEK293 cell lysate assessed as residual activity at 1.5 uM after 1 hr
[12] = biological target: T1, Proteasome component C5 (Homo sapiens); test: Inhibition of 26S proteasome beta 1 in human HEK293 cell lysate assessed as residual activity at 0.006 uM after 1 hr; format: cell-free
[13] = biological target: Proteasome subunit beta type-5 (Homo sapiens) (UniProt P28074); test: Inhibition of 26S proteasome beta 5 in human HEK293 cell lysate assessed as residual activity at 0.002 uM after 1 hr
[14] = biological target: T1, Proteasome component C5 (Homo sapiens); test: Displacement of fluorescent labeled MV151 from 26S proteasome beta 1 in human HEK293 cell lysate assessed as disappearance of band at 0.1 to 1 uM after 1 hr by SDS-PAGE; format: cell-free
[15] = biological target: T1, Proteasome component C5 (Homo sapiens); test: Inhibition of 26S proteasome beta 1 in human HEK293 cell lysate assessed as residual activity at 0.001 uM after 1 hr; format: cell-free
[16] = biological target: Proteasome subunit beta type-5 (Homo sapiens) (UniProt P28074); test: Inhibition of 26S proteasome beta 5 in human HEK293 cell lysate assessed as residual activity at 0.5 uM after 1 hr
[17] = biological target: Proteasome Macropain subunit (Homo sapiens) (UniProt P49721); test: Inhibition of 26S proteasome beta 2 in human HEK293 cell lysate assessed as residual activity at 0.001 uM after 1 hr; format: cell-free
[18] = biological target: Proteasome subunit beta type-5 (Homo sapiens) (UniProt P28074); test: Inhibition of 26S proteasome beta 5 in human HEK293 cell lysate assessed as residual activity at […] after 1 hr
[19] = biological target: T1, Proteasome component C5 (Homo sapiens); test: Inhibition of 26S proteasome beta 1 in human HEK293 cell lysate assessed as residual activity at 1.5 uM after 1 hr; format: cell-free
[20] = biological target: Proteasome subunit beta type-5 (Homo sapiens) (UniProt P28074); test: Inhibition of 26S proteasome beta 5 in human HEK293 cell lysate assessed as residual activity at 0.006 uM after 1 hr
[21] = biological target: Proteasome Macropain subunit (Homo sapiens) (UniProt P49721); test: Inhibition of 26S proteasome beta 2 in human HEK293 cell lysate assessed as residual activity at 0.5 uM after 1 hr; format: cell-free
[22] = biological target: T1, Proteasome component C5 (Homo sapiens); test: Inhibition of 26S proteasome beta 1 in human HEK293 cell lysate assessed as residual activity at 13.5 uM after 1 hr; format: cell-free
[23] = biological target: Proteasome Macropain subunit (Homo sapiens) (UniProt P49721); test: Inhibition of 26S proteasome beta 2 in human HEK293 cell lysate assessed as residual activity at 13.5 uM after 1 hr; format: cell-free
[24] = biological target: T1, Proteasome component C5 (Homo sapiens); test: Inhibition of 26S proteasome beta 1 in human HEK293 cell lysate assessed as residual activity at 0.002 uM after 1 hr; format: cell-free
[25] = biological target: Proteasome subunit beta type-5 (Homo sapiens) (UniProt P28074); test: Inhibition of 26S proteasome beta 5 in human HEK293 cell lysate assessed as residual activity at 13.5 uM after 1 hr
[26] = biological target: Proteasome Macropain subunit (Homo sapiens) (UniProt P49721); test: Inhibition of 26S proteasome beta 2 in human HEK293 cell lysate assessed as residual activity at 1.5 uM after 1 hr; format: cell-free
[27] = biological target: Proteasome Macropain subunit (Homo sapiens) (UniProt P49721); test: Inhibition of 26S proteasome beta 2 in human HEK293 cell lysate assessed as residual activity at 0.002 uM after 1 hr; format: cell-free
[28] = biological target: Proteasome Macropain subunit (Homo sapiens) (UniProt P49721); test: as §2; format: cell-free; remark: listed apart in the source
[29] = biological target: Proteasome subunit beta type-5 (Homo sapiens) (UniProt P28074); test: Inhibition of 26S proteasome beta 5 in human HEK293 cell lysate assessed as residual activity at […] after 1 hr; remark: listed apart in the source
[30] = biological target: Proteasome Macropain subunit (Homo sapiens) (UniProt P49721); test: Inhibition of 26S proteasome beta 2 in human HEK293 cell lysate assessed as residual activity at 0.019 uM after 1 hr; format: cell-free
[31] = biological target: T1, Proteasome component C5 (Homo sapiens); test: Inhibition of 26S proteasome beta 1 in human HEK293 cell lysate assessed as residual activity at 0.5 uM after 1 hr; format: cell-free
[32] = biological target: Proteasome subunit beta type-5 (Homo sapiens) (UniProt P28074); test: Inhibition of 26S proteasome beta 5 in human HEK293 cell lysate assessed as residual activity at 0.167 uM after 1 hr
[33] = biological target: T2, Proteasome Macropain subunit MB1 (Homo sapiens); test: Displacement of fluorescent labeled MV151 from 26S proteasome beta 5 in human HEK293 cell lysate assessed as residual activity at 1 uM after 1 hr by SDS-PAGE; format: cell-free
[34] = biological target: T1, Proteasome component C5 (Homo sapiens); test: Displacement of fluorescent labeled MV151 from 26S proteasome beta 1 in human HEK293 cell lysate assessed as residual activity at 1 uM after 1 hr by SDS-PAGE; format: cell-free
[35] = biological target: Proteasome Macropain subunit (Homo sapiens) (UniProt P49721); test: Displacement of fluorescent labeled MV151 from 26S proteasome beta 2 in human HEK293 cell lysate assessed as residual activity at 1 uM after 1 hr by SDS-PAGE; format: cell-free
[36] = biological target: Proteasome Macropain subunit (Homo sapiens) (UniProt P49721); test: Displacement of fluorescent labeled MV151 from 26S proteasome beta 2 in human HEK293 cell lysate assessed as residual activity at 100 uM after 1 hr by SDS-PAGE; format: cell-free
[37] = biological target: T2, Proteasome Macropain subunit MB1 (Homo sapiens); test: Displacement of fluorescent labeled MV151 from 26S proteasome beta 5 in human HEK293 cell lysate assessed as residual activity at 100 uM after 1 hr by SDS-PAGE; format: cell-free
[38] = biological target: T1, Proteasome component C5 (Homo sapiens); test: Displacement of fluorescent labeled MV151 from 26S proteasome beta 1 in human HEK293 cell lysate assessed as residual activity at 100 uM after 1 hr by SDS-PAGE; format: cell-free

Sequence of Proteasome Macropain subunit (Homo sapiens) (P49721 whole entry): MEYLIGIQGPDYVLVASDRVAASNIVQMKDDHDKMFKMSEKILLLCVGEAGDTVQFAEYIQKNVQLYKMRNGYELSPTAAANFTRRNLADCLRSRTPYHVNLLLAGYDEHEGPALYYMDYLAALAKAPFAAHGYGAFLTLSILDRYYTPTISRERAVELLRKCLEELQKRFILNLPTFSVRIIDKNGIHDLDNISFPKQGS

| SMILES | Activity [1] | Activity [2] | Activity [3] | Activity [4] | Activity [6] | Activity [7] | Activity [8] | Activity [9] | Activity [10] | Activity [11] | Activity [12] | Activity [13] | Activity [15] | Activity [16] | Activity [17] | Activity [18] | Activity [19] | Activity [20] | Activity [21] | Activity [22] | also measured |
| --- | --- | --- | --- | --- | --- | --- | --- | --- | --- | --- | --- | --- | --- | --- | --- | --- | --- | --- | --- | --- | --- |
| CC(C)C[C@H](NC(=O)[C@H](Cc1cc(C(F)(F)F)cc(C(F)(F)F)c1)NC(=O)c1cnccn1)B1OC2C[C@@H]3C[C@@H](C3(C)C)[C@]2(C)O1 (some centres undefined) | 1.1% | 79.1% | 35.5% | 45.2% | 21.2% | 109% | 63.7% | 94.3% | 92.3% | 5.4% | 93.2% | 41.3% | 99.9% | 7.7% | 100% | 2.7% | 3.1% | 23.3% | 103% | 0.5% | Activity [5]: Active; Activity [14]: Active; Activity [23]: 38.5%; Activity [24]: 102%; Activity [25]: 0.7%; Activity [26]: 78.5%; Activity [27]: 93.1%; Activity [28]: 122%; Activity [29]: 14.3%; Activity [30]: 118%; Activity [31]: 17%; Activity [32]: 8.8% |
| CC(C)C[C@H](NC(=O)[C@H](Cc1cc(C(F)(F)F)cc(C(F)(F)F)c1)NC(=O)[C@H](Cc1ccccc1)NC(=O)[C@H](Cc1ccccc1)N=[N+]=[N-])C(=O)[C@@]1(C)CO1 | 67.7% | 103% | 109% | 93.5% | 100% | 105% | 77.1% | 112% | 98.1% | 9.5% | 97.8% | 97% | 106% | 19.7% | 106% | 5.2% | 82.8% | 92.2% | 99.1% | 50.3% | Activity [33]: 45%; Activity [34]: 156%; Activity [35]: 4.3%; Activity [36]: 92%; Activity [37]: 2.6%; Activity [23]: 57.9%; Activity [24]: 102%; Activity [25]: 3%; Activity [26]: 97.3%; Activity [27]: 99.6%; Activity [38]: 61%; Activity [28]: 111%; Activity [29]: 66.2%; Activity [30]: 111%; Activity [31]: 89.9%; Activity [32]: 34.9% |
| CC(C)C[C@H](NC(=O)[C@H](Cc1ccccc1)NC(=O)[C@H](Cc1cc(C(F)(F)F)cc(C(F)(F)F)c1)NC(=O)[C@H](Cc1ccccc1)N=[N+]=[N-])C(=O)[C@@]1(C)CO1 | 90.3% | 116% | 116% | 85.7% | 94.4% | 100% | 92.9% | 98.4% | 94.7% | 9.8% | 96.9% | 101% | 112% | 20.5% | 118% | 11% | 104% | 93.5% | 110% | 61.3% | Activity [33]: 78%; Activity [34]: 167%; Activity [35]: 3.1%; Activity [36]: 128%; Activity [37]: 3%; Activity [23]: 73.4%; Activity [24]: 92.8%; Activity [25]: 5.1%; Activity [26]: 113%; Activity [27]: 104%; Activity [38]: 80%; Activity [28]: 105%; Activity [29]: 70.5%; Activity [30]: 100%; Activity [31]: 104%; Activity [32]: 44.3% |
